In PubChem BioAssay (NCI):
Where “and” joins values, the source holds several entries; their conditions need not be identical. Equal entries are not always repeated.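 All cell lines were grown in 96-well plates and treated with compound for 48 hours. The concentration for 50% growth inhibition is given as GI50. TGI: total growth inhibition.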

Tests used:
Assay in all cases: DTP human tumour cell line panel, 48 h
HL-60(TB) leukemia = test system: HL-60(TB) leukemia
HOP-92 NSCLC = test system: HOP-92 NSCLC
HCT-116 colon = test system: HCT-116 colon
HS 578T breast = test system: HS 578T breast
IGROV1 ovarian = test system: IGROV1 ovarian
SK-OV-3 ovarian = test system: SK-OV-3 ovarian
HCT-15 colon = test system: HCT-15 colon
RPMI-8226 leukemia = test system: RPMI-8226 leukemia
KM12 colon = test system: KM12 colon
COLO 205 colon = test system: COLO 205 colon

| SMILES | TGI (HL-60(TB) leukemia) [µM] | TGI (HOP-92 NSCLC) [µM] | TGI (HCT-116 colon) [µM] | TGI (HS 578T breast) [µM] | TGI (IGROV1 ovarian) [µM] | TGI (SK-OV-3 ovarian) [µM] | TGI (HCT-15 colon) [µM] | TGI (RPMI-8226 leukemia) [µM] | TGI (KM12 colon) | TGI (COLO 205 colon) | GI50 (HL-60(TB) leukemia) [µM] | GI50 (HOP-92 NSCLC) [µM] | GI50 (HCT-116 colon) [µM] | GI50 (HS 578T breast) [µM] | GI50 (IGROV1 ovarian) [µM] | GI50 (SK-OV-3 ovarian) [µM] | GI50 (HCT-15 colon) [µM] | GI50 (RPMI-8226 leukemia) [µM] | GI50 (KM12 colon) [µM] | GI50 (COLO 205 colon) [µM] |
| --- | --- | --- | --- | --- | --- | --- | --- | --- | --- | --- | --- | --- | --- | --- | --- | --- | --- | --- | --- | --- |
| OCc1ccn2c1[C@@H](O)CC2 | > 100 | > 100 | > 100 | > 100 | > 100 | > 100 | > 100 | > 100 | > 100 µM | > 100 µM |  |  |  |  |  |  |  |  |  |  |
| Cn1cc(C2=C(c3cccc(Br)c3)C(=O)NC2=O)c2ccccc21 | > 25 | > 25 | > 25 | > 25 | > 25 | > 25 | > 25 | > 25 | > 25 µM | > 25 µM | 10.2 | 8.62 | 7.62 | 3.92 | 11 | 10.3 | 9.24 | 20.1 | 8.43 | 13.9 |
| N#CC1=C(N)Oc2cc(O)ccc2C1c1cccc2ccccc12 (stereo not drawn) | 11.7 | 23.7 | 25.7 | 73 | 29.4 | 42.9 | 26.9 | 41.7 | > 100 µM | 38.2 µM | 3.16 | 3.78 | 6.52 | 16.6 | 13.1 | 18.1 | 8.71 | 10.9 | 6.68 | 16.5 |
| O=C(Nc1ccc(-n2ccc3c(NC(=O)c4ccccc4)nccc32)cc1)Nc1ccc(Cl)c(Cl)c1 | 4.22 | 4.61 | 1.74 | 3.47 | 11 | 3.29 | 2.84 | 3.08 | 2.5 µM | 3.27 µM | 1.25 | 1.23 | 0.488 | 0.791 | 1.76 | 1.2 | 0.201 | 0.482 | 0.985 | 1.42 |
| CC(C)(S)C(N)C(=O)O (stereo not drawn) | > 5000 | > 5000 | > 5000 | > 100 | > 100 | > 5000 | > 5000 | > 5000 | 4710 µM and > 100 µM | 2880 µM and > 100 µM | 3640 | 2960 | 1860 |  |  | 2600 | 1950 | 3830 | 1470 | 1180 |
| Cc1nc2sc3c(c2c(=O)[nH]1)CCCC3 | > 100 | > 100 | > 100 | > 100 | > 100 | > 100 | > 100 | > 100 | > 100 µM | > 100 µM |  |  |  |  |  |  |  |  |  |  |
| COc1ccc(CCNC(=O)c2ccc(NC3=C(Cl)C(=O)N(Cc4ccccc4)C3=O)cc2)cc1OC | 4.49 | 5.75 | > 100 | > 100 |  | > 100 | > 100 | 6.5 | > 100 µM | > 100 µM | 2.83 | 2.22 | 6.04 | 4.62 |  | 35.8 | 4.1 | 2.27 | 23.5 | 3.94 |
| CC1=C(C(=O)Nc2ccc(Cl)c(Cl)c2)C(c2cccc(Oc3ccccc3)c2)NC(=O)N1 (stereo not drawn) | > 50 | > 50 |  | 22.3 | 32.6 | > 50 | 48.2 | > 50 | 19.7 µM | 35.7 µM | 22.8 | 24.6 |  | 6.72 | 5.6 | 25.5 | 6.61 | 13.4 | 8.72 | 12.6 |
| CCOC(=O)c1c(NC(=O)c2cccc(C(F)(F)F)c2)sc2c(CN(C)C)c(O)ccc12 | 4.26 | 15.2 | 10.3 | 26.4 | 28.8 | 41.8 | 5.77 |  | 17.9 µM | 4.66 µM | 1.89 | 2.76 | 3.14 | 6.78 | 12.2 | 19.1 | 2.13 |  | 4.92 | 2.1 |
| CCN1C(=O)N(CC)C2C1NN=c1s/c(=C3\C(=O)N(CC(C)(C)C)c4ccccc43)c(=O)n12 (stereo not drawn) | 22.6 | 16 | 14.5 | 19.7 | 23.6 | 74.6 | 18.4 |  | 18.4 µM | 13.5 µM | 3.78 | 2.56 | 3.43 | 2.66 | 3.91 | 10.7 | 3.31 |  | 3.67 | 3.31 |
| O=C1NC(=NCCc2cccc(Cl)c2)S/C1=C\c1ccc2ncccc2c1 | > 25 | > 25 |  | > 25 | > 25 | > 25 | > 25 | > 25 | > 25 µM | > 25 µM | > 25 | > 25 |  | > 25 | > 25 | > 25 | 1.08 | > 25 | 1.32 | > 25 |
